In patent US20190175557A1, “COMPOUNDS USEFUL FOR DECREASING INTERFERON LEVEL” (priority 2016, published 2019):

How the values were obtained:
[1] = tested on: HIV-stimulated pDC; assay: IFN-α / type I IFN production by HIV-stimulated purified pDC (ELISA); format: cell-based, human
[2] = tested on: Flu-stimulated pDC from wild type and H4R KO mice; format: cell-based, mouse; settings: CB 10 μM, overnight Influenza A
[3] = tested on: 129S8 mice infected with Influenza A virus strain X31 (H3N2); settings: mouse, in vivo
[4] = tested on: HIV-stimulated pDC; assay: TRAIL relocalization to the membrane of HIV-stimulated pDC (3D microscopy); format: cell-based, human
Protocol: Cells were then incubated with anti-CXCR4 antibody (Biolegend, San Diego, Calif.) in saturation buffer PBS-BSA 0.5% for membrane staining or in permeabilizing buffer containing 1% saponin with monoclonal antibody anti-TRAIL (Biolegend, San Diego, Calif., USA). […] Nucleus was stained using DAPI (Molecular Probes, Paisley, UK). Slides were mounted with Fluoromount-G (eBioscience, CA, USA) and scanned with a Nikon Eclipse 90i Upright microscope (Nikon Instruments Europe, Badhoevedorp, The Netherlands) using a 100× Plan Apo VC piezo objective (NA 1.4) and Chroma bloc filters (ET-DAPI, ET-GFP) and were subsequently deconvoluted with a Meinel algorithm and 8 iterations and analyzed using Metamorph® (MDS Analytical Technologies, Winnersh, UK). TRAIL/DAPI/Overlay/Confocal plane: Representative 2D focal plan. Overlay with bright: Bright. Reconvolution overlays: 2D projections of the maximum intensity pixels along the Z-axis.
7 pictures were taken from each slide for each Z section framing the nucleus. Quantification of the colocalization in the cytoplasm of purified pDC using Mander's Coefficient was obtained after analyze by JACoP pluging in ImageJ.

[5] = tested on: NK cells activated by K562 cells; assay: IFN-γ, TNF-α and CD107a expression by NK cells activated by K562 cells (flow cytometry); format: cell-based; settings: treated 1 hour, then activated by K562 cells
[6] = tested on: collagen-induced arthritis in DBA1/J mice; assay: Therapeutic collagen-induced arthritis model in DBA1/J mice; format: in vivo, mouse; settings: for average AI (Arthritic Index): maximum AI=16
Protocol: 80 DBA1/J mice (male, 7-8 weeks) was received and placed in quarantine for 3 days with daily inspections. Ear tag mice for individual identification.
Individual mouse weights were recorded. Hind paw thickness were recorded by digital caliper. 80 mice subcutaneous were injected with collagen/CFA emulsion (0.05 ml/mouse; 100 μg/mouse collagens in CFA) using a 1 ml syringe fitted with a 25G needle. Mice returned to cages.
80 mice were boosted with collagen/ICFA emulsion. Then their individual weights were recorded.
Mice were scored for signs of arthritis:
7) Calculate Arthritic Index (AI) by addition of individual paw scores and record.
Mice with an AI score within a range of 2-6 were selected for assignment to groups for therapeutic dosing as in Table 4.
Begin intraperitoneal (IP) dosing once daily (QD) according to Table 4.
The compounds clobenpropit (CB) and IT1t were tested. CB and IT1t were stored at 4° C. […] These compounds were doses 7 days per week (Saturday and Sunday included) daily for 14 days.
Mice were weighed, scored for signs or arthritis, and hind paw thickness is measured by digital caliper three-times weekly (Monday, Wednesday and Friday). Any adverse reactions to treatment were recorded.
Termination: AI score were recorded for each limb. The paw thickness of the hind limbs is measured with digital caliper. Mice were anesthetized and exsanguinated into pre-chilled EDTA-tubes.
2) Plasma was assayed by ELISA for IL-1β, IL-6, TRAIL. Then, all limbs were collected.

[7] = tested on: pristane-induced SLE in Balb/c mice; assay: Pristane-induced systemic lupus erythematosus (SLE) model in Balb/c mice; format: in vivo, mouse; settings: 3, 10, 30 mg/kg IP QD
Protocol: Receive and quarantine (SOP 560) 70 female Balb/C (20-25 g) mice and house in filter-topped cages supplied with autoclaved bedding.
The animals are weighed, ear tagged for individual identification and randomly assigned to 8 treatment groups of 8 animals each and two groups of 3 animals (for pre-tolerance at 30 mg/kg of survival).
The test items compounds clobenpropit (CB) and IT1t are stored at 4° C.
Mouse weights are recorded twice a week, and daily observations for clinical signs.
Collected sera are stored at −80° C. for measurements of autoantibody on weeks 4, 8 and 10. (Predose will kept at −80° C. for potential use). Anti-dsDNA level is a standard screening readout for identifying efficacy of test compounds in a SLE model.
Measurements: weeks 4, 8, 10: (1) autoantibody (anti-dsDNA), collagen and cytokines TNFα, IL-6 and TRAIL by ELISA and (2) ANA antibody by IFA.

[8] = tested on: human primary PBMC
[9] = in vitro
[10] = tested on: pDC; assay: Cytotoxicity of compounds on cultured pDC; settings: 10 μM
[11] = 10 mg/kg IP once daily, at termination
[12] = 30 mg/kg IP once daily, at termination

In the case of NC(=NCc1ccc(Cl)cc1)SCCCc1cnc[nH]1 [Clobenpropit, clobenpropit], the “IFN-α production kinetics by HIV-stimulated pDC” value ([1]; after 9 h of incubation) is reported as “inhibited”, the “inhibitory effect on pDC activation / IFN-α production by HIV-1” value ([1]; purified pDC, 10 μM) is reported as “stronger inhibitory effect than histamine” and the “reduction of levels of IFN-α secreted following HIV stimulation” value ([1]; purified pDC, 10 μM, ELISA) is reported as “approximately 90%”. For the same molecule, the “IFN-α production by Flu-stimulated pDC from H4R KO mice” value [2] was “inhibited”, the “IFN-α production by Flu-stimulated pDC from wild type mice” value [2] was “inhibited” and the “IFN-α, IFN-β and IFN-λ2/3 protein production in bronchioalveolar lavage (BAL) fluid” value [3] was “strong reduction”. For the same molecule, the “TRAIL localization to the cell membrane in HIV-stimulated pDC” value [4] was “significantly inhibited”, the “IFN-γ, TNF-α and CD107a expression by NK cells” value [5] was “decrease” and the “reduction in terminal plasma concentration of IL-1β” value (from here on “reduction … of IL-1β”) ([6]; 3 mg/kg IP once daily) was 64%. The “reduction in terminal plasma concentration of IL-6” value (shortened to “reduction … of IL-6”) ([6]; 3 mg/kg IP once daily) was 49%, the “reduction in terminal plasma concentration of TRAIL” value (shortened to “reduction … of TRAIL”) ([6]; 3 mg/kg IP once daily) was “had also an effect” and the “inhibition of disease severity” value ([6]; 3 mg/kg IP once daily, Day 28-42, at termination (Day 42)) was 25%. The “average AI (Arthritic Index)” value ([6]; 3 mg/kg IP once daily, at termination (Day 42)) was 9.8, the “reduction … of IL-1β” value ([6]; 10 mg/kg IP once daily) was 75% and the “reduction … of IL-6” value ([6]; 10 mg/kg IP once daily) was 80%. The “reduction … of TRAIL” value ([6]; 10 mg/kg IP once daily) was “had also an effect”, the “reduction in disease severity” value [6, 11] was 66% and the “average AI (Arthritic Index)” value [6, 11] was 4.4. The “reduction … of IL-1β” value ([6]; 30 mg/kg IP once daily) was 82%, the “reduction … of IL-6” value ([6]; 30 mg/kg IP once daily) was 82% and the “reduction … of TRAIL” value ([6]; 30 mg/kg IP once daily) was “significant reduction”. The “reduction in disease severity” value [6, 12] was 87%, the “average AI (Arthritic Index)” value [6, 12] was 1.8 and the “disease progression over the dose range” value ([6]; 3, 10 and 30 mg/kg daily intraperitoneal injection) was “dose-dependent inhibition”. The “symptoms of pristane-Induced Systemic Lupus Erythematosus” value [7] was “reduce symptoms”, the “body weight during the study” value ([7]; compared to dose started date) was “no loss of body weight” and the ds-DNA level ([7]; compared to group 1 (vehicle)) was “inhibition”. For the same molecule, the “Therapeutic index (Ratio TC50/EC50)” value [8] was 17.4, the CC50 [9] was 417 ± 6 µM and the “cytotoxicity on purified pDC” value [10] was “no cytotoxic effect”.
